Assay results taken from patent US6596728B1, “Substituted 1,3-diaryl-2-pyrid-2-yl-3-(pyrid-2-ylamino)propanol derivatives, process for their preparation, pharmaceuticals comprising these compounds and their use” (Aventis Pharma Deutschland GmbH, priority 1998, dated 2003).

Target: T1, intestinal bile acid transportation system (Na+-dependent) in brush border membrane vesicles of the ileum (Oryctolagus cuniculus, UniProt Q28727)
T1 construct: Preparation of Brush Border Membrane Vesicles from the Ileum of Rabbits; from tissue; host or cells: brush border membrane vesicles from terminal ileum of male New Zealand rabbits
T1 sequence (Q28727 1-347): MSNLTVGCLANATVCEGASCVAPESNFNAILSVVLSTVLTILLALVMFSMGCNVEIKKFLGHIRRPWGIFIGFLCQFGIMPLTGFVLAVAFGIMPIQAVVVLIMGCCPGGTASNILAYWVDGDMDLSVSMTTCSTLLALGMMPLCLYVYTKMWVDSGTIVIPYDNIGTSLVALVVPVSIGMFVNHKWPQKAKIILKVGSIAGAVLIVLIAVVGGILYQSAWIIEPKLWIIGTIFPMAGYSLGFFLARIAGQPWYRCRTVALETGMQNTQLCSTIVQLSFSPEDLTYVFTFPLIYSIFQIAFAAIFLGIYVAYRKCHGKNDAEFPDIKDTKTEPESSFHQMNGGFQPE
Experiment: Inhibition of Na+-dependent [3H]-taurocholate uptake in brush border membrane vesicles of the ileum of rabbits
Format: biochemical
Details: quotient of the IC50Na of the reference substance taurochenodeoxycholate (TCDC) and of the test substance, 50 μM taurocholate, rabbit ileum vesicles
Description: Biological testing of the compounds according to the present invention was carried out by determining the inhibition of [^3H]-taurocholate uptake in brush border membrane vesicles of the ileum of rabbits. The inhibition test was carried out as follows:
1. Preparation of Brush Border Membrane Vesicles from the Ileum of Rabbits
Brush border membrane vesicles from the intestinal cells of the small intestine were prepared by the so-called Mg^2+ precipitation method. Male New Zealand rabbits (2 to 2.5 kg body weight) were sacrificed by intravenous injection of 0.5 ml T61®, an aqueous solution of 2.5 mg tetracaine HCl, […] embutramide and 25 mg mebezonium iodide. The small intestine was removed and rinsed with ice-cold physiological saline solution. The terminal 7/10 of the small intestine (measured in the oral-rectal direction, i.e., the terminal ileum, which contains the active Na^+-dependent bile acid transportation system) was used for preparation of the brush border membrane vesicles. The intestines were frozen in plastic bags under nitrogen at −80° C. For preparation of the membrane vesicles, the frozen intestines were thawed at 30° C. in a water bath. The mucosa was scraped off and suspended in 60 ml of ice-cold 12 mM TRIS/HCl buffer (pH 7.1)/300 mM mannitol, 5 mM EGTA/10 mg/l of phenylmethylsulfonyl fluoride/1 mg/l of trypsin inhibitor from soybeans (32 U/mg)/0.5 mg/l of trypsin inhibitor from bovine lung (193 U/mg)/5 mg/l of bacitracin. After dilution to 300 ml with ice-cold distilled water, the mixture was homogenized with an Ultraturrax (18-rod, IKA Werk Staufen, Germany) for 3 minutes at 75% of the maximum output by cooling with ice. After addition of 3 ml of 1 M MgCl2 solution (final concentration 10 mM), the mixture was allowed to stand for exactly 1 minute at 0° C. The cell membranes aggregate by addition of Mg^2+ and precipitate, with the exception of the brush border membranes. After centrifugation at 3000×g (5000 rpm, SS-34 rotor) for 15 minutes, the precipitate was discarded land the supernatant, which contains the brush border membranes, was centrifuged at 48000×g (20000 rpm, SS-34 rotor) for 30 minutes. The supernatant was discarded, and the precipitate was rehomogenized in 60 ml of 12 mM TRIS/HCl buffer (pH 7.1)/60 mM mannitol, 5 mM EGTA with a Potter Elvejhem homogenizer (Braun, Melsungen, 900 rpm, 10 strokes). After addition of 0.1 ml of 1 M MgCl2 solution and incubation for 15 minutes at 0° C., centrifugation was again carried out at 3000×g for 15 minutes. The supernatant was then centrifuged again at 48000×x g (20000 rpm, SS-34 rotor) for 30 minutes. The precipitate was taken up in 30 ml of 10 mM TRIS/HEPES buffer (pH 7.4)/300 mM mannitol and resuspended homogeneously by 20 strokes in a Potter Elvejhem homogenizer at 1000 rpm. After centrifugation at 48000×g (20000 rpm, SS-34 rotor) for 30 minutes, the precipitate was taken up in 0.5 to 2 ml of TRIS/HEPES buffer (pH 7.4)/280 mM mannitol (final concentration 20 mg/ml) and resuspended with the aid of a Tuberculin syringe with a 27-gauge needle. The vesicles were either used for transportation investigations directly after preparation or stored at −196° C. in 4 mg portions in liquid nitrogen.
2. Inhibition of the Na^+-dependent [^3H]taurocholate Uptake in Brush Border Membrane Vesicles of the Ileum
The uptake of substrates in the brush border membrane vesicles described above was determined by means of the so-called membrane filtration technique. 10 μl of the vesicle suspension (100 μg of protein) were pipetted as drops onto the wall of a polystyrene incubation tube (11×70 mm) which contained the incubation medium with the corresponding ligands (90 μl). […]

Q: `O=C(/C=C/c1cccs1)Nc1ccccc1[C@@H](Nc1ccccn1)[C@H](c1ccccn1)[C@H](O)c1ccccc1` [Example 53] was tested. Which “IC50Na-TCDC (μmol) / IC50Na-compound (μmol)” value did it give?
A: 0.46

Q: For `CC(C)(C)c1ccc(S(=O)(=O)Nc2ccccc2C(Nc2ccccn2)C(c2ccccn2)C(O)c2ccccc2)cc1` (centres unmarked) [Example 66], which “IC50Na-TCDC (μmol) / IC50Na-compound (μmol)” value is on record?
A: 0.93

Q: With `CCOC(=O)/C=C/C(=O)Nc1ccccc1[C@@H](Nc1ccccn1)[C@H](c1ccccn1)[C@H](O)c1ccccc1` [Example 57] as the compound, how does the “IC50Na-TCDC (μmol) / IC50Na-compound (μmol)” value read?
A: 0.79

Q: How did the “IC50Na-TCDC (μmol) / IC50Na-compound (μmol)” value turn out when `COc1cc(/C=C/C(=O)Nc2ccccc2[C@@H](Nc2ccccn2)[C@H](c2ccccn2)[C@H](O)c2ccccc2)ccc1O` [Example 52] was run?
A: 1.11

Q: For `Cc1ccccc1OCC(=O)Nc1ccccc1[C@@H](Nc1ccccn1)[C@H](c1ccccn1)[C@H](O)c1ccccc1` [Example 45], which “IC50Na-TCDC (μmol) / IC50Na-compound (μmol)” value is on record?
A: 1.03

Q: With `O=S(=O)(Nc1ccccc1C(Nc1ccccn1)C(c1ccccn1)C(O)c1ccccc1)c1cc(Cl)cc(Cl)c1O` (centres unmarked) [Example 74] as the compound, how does the “IC50Na-TCDC (μmol) / IC50Na-compound (μmol)” value read?
A: 0.70

Q: Which “IC50Na-TCDC (μmol) / IC50Na-compound (μmol)” value does the source give for `CCCCCC#CC(=O)Nc1ccccc1[C@@H](Nc1ccccn1)[C@H](c1ccccn1)[C@H](O)c1ccccc1` [Example 60] here?
A: 0.62

Q: `CN(CC(=O)Nc1ccccc1[C@@H](Nc1ccccn1)[C@H](c1ccccn1)[C@H](O)c1ccccc1)C(=O)OC(C)(C)C` [Example 49] was tested. Which “IC50Na-TCDC (μmol) / IC50Na-compound (μmol)” value did it give?
A: 0.86

Q: How did the “IC50Na-TCDC (μmol) / IC50Na-compound (μmol)” value turn out when `O=S(=O)(Nc1ccccc1C(Nc1ccccn1)C(c1ccccn1)C(O)c1ccccc1)c1cc(C(F)(F)F)cc(C(F)(F)F)c1` (centres unmarked) [Example 78] was run?
A: 0.27

Q: For `O=S(=O)(Nc1ccccc1C(Nc1ccccn1)C(c1ccccn1)C(O)c1ccccc1)c1ccc(Cl)s1` (centres unmarked) [Example 82], which “IC50Na-TCDC (μmol) / IC50Na-compound (μmol)” value is on record?
A: 0.79

Q: How did the “IC50Na-TCDC (μmol) / IC50Na-compound (μmol)” value turn out when `O=S(=O)(Nc1ccccc1C(Nc1ccccn1)C(c1ccccn1)C(O)c1ccccc1)c1ccc(F)cc1` (centres unmarked) [Example 73] was run?
A: 0.92

Q: `C#CCCC(=O)Nc1ccccc1[C@@H](Nc1ccccn1)[C@H](c1ccccn1)[C@H](O)c1ccccc1` [Example 31] was tested. Which “IC50Na-TCDC (μmol) / IC50Na-compound (μmol)” value did it give?
A: 1.13

Q: Which “IC50Na-TCDC (μmol) / IC50Na-compound (μmol)” value does the source give for `CCOCC(=O)Nc1ccccc1[C@@H](Nc1ccccn1)[C@H](c1ccccn1)[C@H](O)c1ccccc1` [Example 50] here?
A: 0.67

Q: `O=C(Cc1ccccc1C(F)(F)F)Nc1ccccc1[C@@H](Nc1ccccn1)[C@H](c1ccccn1)[C@H](O)c1ccccc1` [Example 38] was tested. Which “IC50Na-TCDC (μmol) / IC50Na-compound (μmol)” value did it give?
A: 0.38

Q: With `CN(C)c1cccc2c(S(=O)(=O)Nc3ccccc3C(Nc3ccccn3)C(c3ccccn3)C(O)c3ccccc3)cccc12` (centres unmarked) [Example 89] as the compound, how does the “IC50Na-TCDC (μmol) / IC50Na-compound (μmol)” value read?
A: 0.90

Q: For `O=C(COc1ccc(F)cc1)Nc1ccccc1[C@@H](Nc1ccccn1)[C@H](c1ccccn1)[C@H](O)c1ccccc1` [Example 44], which “IC50Na-TCDC (μmol) / IC50Na-compound (μmol)” value is on record?
A: 1.05

Q: `CC(=O)Nc1nc(C)c(S(=O)(=O)Nc2ccccc2C(Nc2ccccn2)C(c2ccccn2)C(O)c2ccccc2)s1` (centres unmarked) [Example 93] was tested. Which “IC50Na-TCDC (μmol) / IC50Na-compound (μmol)” value did it give?
A: 1.10

Q: How did the “IC50Na-TCDC (μmol) / IC50Na-compound (μmol)” value turn out when `CC(C)S(=O)(=O)Nc1ccccc1C(Nc1ccccn1)C(c1ccccn1)C(O)c1ccccc1` (centres unmarked) [Example 77] was run?
A: 0.22

Q: `O=C(Cc1cccs1)Nc1ccccc1[C@@H](Nc1ccccn1)[C@H](c1ccccn1)[C@H](O)c1ccccc1` [Example 34] was tested. Which “IC50Na-TCDC (μmol) / IC50Na-compound (μmol)” value did it give?
A: 0.81

Q: `O=C(CSc1ncccn1)Nc1ccccc1[C@@H](Nc1ccccn1)[C@H](c1ccccn1)[C@H](O)c1ccccc1` [Example 56] was tested. Which “IC50Na-TCDC (μmol) / IC50Na-compound (μmol)” value did it give?
A: 1.15

Q: For `O=[N+]([O-])c1ccccc1S(=O)(=O)Nc1ccccc1C(Nc1ccccn1)C(c1ccccn1)C(O)c1ccccc1` (centres unmarked) [Example 65], which “IC50Na-TCDC (μmol) / IC50Na-compound (μmol)” value is on record?
A: 0.84

Q: `O=C(CCC(=O)c1ccc(Cl)cc1)Nc1ccccc1[C@@H](Nc1ccccn1)[C@H](c1ccccn1)[C@H](O)c1ccccc1` [Example 36] was tested. Which “IC50Na-TCDC (μmol) / IC50Na-compound (μmol)” value did it give?
A: 0.36

Q: For `Cc1c(C)c(S(=O)(=O)Nc2ccccc2C(Nc2ccccn2)C(c2ccccn2)C(O)c2ccccc2)c(C)c2c1OC(C)(C)CC2` (centres unmarked) [Example 83], which “IC50Na-TCDC (μmol) / IC50Na-compound (μmol)” value is on record?
A: 0.24

Q: How did the “IC50Na-TCDC (μmol) / IC50Na-compound (μmol)” value turn out when `COc1ccc(CCC(=O)Nc2ccccc2[C@@H](Nc2ccccn2)[C@H](c2ccccn2)[C@H](O)c2ccccc2)cc1OC` [Example 35] was run?
A: 0.36

Q: Which “IC50Na-TCDC (μmol) / IC50Na-compound (μmol)” value does the source give for `O=C(Cc1ccc(Cl)cc1)Nc1ccccc1[C@@H](Nc1ccccn1)[C@H](c1ccccn1)[C@H](O)c1ccccc1` [Example 33] here?
A: 0.52

Q: For `N#CC1(C(=O)Nc2ccccc2[C@@H](Nc2ccccn2)[C@H](c2ccccn2)[C@H](O)c2ccccc2)CC1` [Example 62], which “IC50Na-TCDC (μmol) / IC50Na-compound (μmol)” value is on record?
A: 0.99

Q: `Cc1ccnc(SCC(=O)Nc2ccccc2[C@@H](Nc2ccccn2)[C@H](c2ccccn2)[C@H](O)c2ccccc2)n1` [Example 61] was tested. Which “IC50Na-TCDC (μmol) / IC50Na-compound (μmol)” value did it give?
A: 0.66

Q: Which “IC50Na-TCDC (μmol) / IC50Na-compound (μmol)” value does the source give for `N[C@@H](Cc1ccccc1)C(=O)N1CCC[C@H]1C(=O)Nc1ccccc1[C@@H](Nc1ccccn1)[C@H](c1ccccn1)[C@H](O)c1ccccc1` [Example 2c] here?
A: 1.06

Q: For `O=C(O)c1ccc(S(=O)(=O)Nc2ccccc2C(Nc2ccccn2)C(c2ccccn2)C(O)c2ccccc2)cc1` (centres unmarked) [Example 91], which “IC50Na-TCDC (μmol) / IC50Na-compound (μmol)” value is on record?
A: 0.92

Q: Which “IC50Na-TCDC (μmol) / IC50Na-compound (μmol)” value does the source give for `CS(=O)(=O)c1ccc(S(=O)(=O)Nc2ccccc2C(Nc2ccccn2)C(c2ccccn2)C(O)c2ccccc2)cc1` (centres unmarked) [Example 94] here?
A: 0.40

Q: For `CC1(C)[C@@H]2CCC1(CS(=O)(=O)Nc1ccccc1C(Nc1ccccn1)C(c1ccccn1)C(O)c1ccccc1)C(=O)C2` (some centres unmarked) [Example 69], which “IC50Na-TCDC (μmol) / IC50Na-compound (μmol)” value is on record?
A: 1.00

Q: For `O=C(CN1C(=O)c2ccccc2C1=O)Nc1ccccc1[C@@H](Nc1ccccn1)[C@H](c1ccccn1)[C@H](O)c1ccccc1` [Example 47], which “IC50Na-TCDC (μmol) / IC50Na-compound (μmol)” value is on record?
A: 1.00

Q: With `CCCCOc1ccc(S(=O)(=O)Nc2ccccc2C(Nc2ccccn2)C(c2ccccn2)C(O)c2ccccc2)cc1` (centres unmarked) [Example 87] as the compound, how does the “IC50Na-TCDC (μmol) / IC50Na-compound (μmol)” value read?
A: 0.84

Q: `O=C(Cc1ccsc1)Nc1ccccc1[C@@H](Nc1ccccn1)[C@H](c1ccccn1)[C@H](O)c1ccccc1` [Example 41] was tested. Which “IC50Na-TCDC (μmol) / IC50Na-compound (μmol)” value did it give?
A: 0.61

Q: With `O=C(CNC(=O)OCc1ccccc1)Nc1ccccc1[C@@H](Nc1ccccn1)[C@H](c1ccccn1)[C@H](O)c1ccccc1` [Example 64] as the compound, how does the “IC50Na-TCDC (μmol) / IC50Na-compound (μmol)” value read?
A: 0.39
